Laboratory results taken from ChEMBL document CHEMBL1201862, “PubChem BioAssay data set” (2004).
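Protocol summary: plate cells (96-well), add compound at 5 concentrations, incubate 48 h, interpolate endpoints linearly. Here, GI50 denotes the concentration required for 50% inhibition of growth.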 Calls of active or inactive are those of the source. Rule as the data show it: active = GI50 up to about 1.1 µM and inactive = higher.

What was measured:
Assay in all cases: growth of human tumour cells (NCI), 48 h
PC-3 = tested on: PC-3
IGROV-1 = tested on: IGROV-1
HCC 2998 = tested on: HCC 2998
HOP-92 = tested on: HOP-92
KM12 = tested on: KM12
A549 = tested on: A549
SF-539 = tested on: SF-539
K562 = tested on: K562
SF-295 = tested on: SF-295
OVCAR-4 = tested on: OVCAR-4
CCRF-CEM = tested on: CCRF-CEM
SW-620 = tested on: SW-620
COLO 205 = tested on: COLO 205
NCI-H460 = tested on: NCI-H460
RPMI-8226 = tested on: RPMI-8226
SK-OV-3 = tested on: SK-OV-3
SK-MEL-28 = tested on: SK-MEL-28
SK-MEL-2 = tested on: SK-MEL-2
MOLT-4 = tested on: MOLT-4
RXF 393 = tested on: RXF 393

Compound	GI50 (PC-3)	GI50 (IGROV-1)	GI50 (HCC 2998)	GI50 (HOP-92)	GI50 (KM12)	GI50 (A549)	GI50 (SF-539)	GI50 (K562)	GI50 (SF-295)	GI50 (OVCAR-4)	GI50 (CCRF-CEM)	GI50 (SW-620)	GI50 (COLO 205)	GI50 (NCI-H460)	GI50 (RPMI-8226)	GI50 (SK-OV-3)	GI50 (SK-MEL-28)	GI50 (SK-MEL-2)	GI50 (MOLT-4)	GI50 (RXF 393)
COc1cc2c(/C=C3/C(=O)N(C)c4ccc(O)cc43)c(Cl)[nH]c2cc1C	1380 nM (inactive)	733 nM (active)	373 nM (active)	17200 nM (inactive)	356 nM (active)	667 nM (active)	248 nM (active)	124 nM (active)	262 nM (active)	1800 nM (inactive)	284 nM (active)	361 nM (active)	414 nM (active)	454 nM (active)	350 nM (active)	326 nM (active)	2220 nM (inactive)	641 nM (active)	209 nM (active)	475 nM (active)
CC[C@H](C)[C@H]1NC(=O)[C@@H](NC(=O)[C@@H](CC(C)C)N(C)C(=O)C2CCCN2C(=O)[C@H](C)O)[C@@H](C)OC(=O)[C@@H]2Cc3ccccc3CN2C(=O)[C@@H]2CCCN2C(=O)[C@H](CC(C)C)NC(=O)[C@@H](C)C(=O)[C@H](C(C)C)OC(=O)C[C@@H]1O (stereo not given in full)	317 nM (active)	476 nM (active)	154 nM (active)	1580 nM (inactive)	104 nM (active)	434 nM (active)	267 nM (active)	175 nM (active)	1060 nM (active)	641 nM (active)	106 nM (active)	555 nM (active)	269 nM (active)	171 nM (active)	399 nM (active)	547 nM (active)	231 nM (active)	205 nM (active)	170 nM (active)	802 nM (active)
Cc1c2c(OCCN3CCCCC3)nn(C)c(=O)c2c(C)n1-c1ccccc1	30100 nM (inactive)	70500 nM (inactive)	28100 nM (inactive)	58900 nM (inactive)	32700 nM (inactive)	43600 nM (inactive)	29400 nM (inactive)	27700 nM (inactive)	21200 nM (inactive)	63800 nM (inactive)	35700 nM (inactive)	55000 nM (inactive)	17700 nM (inactive)	39200 nM (inactive)	23600 nM (inactive)	56100 nM (inactive)	25900 nM (inactive)	17000 nM (inactive)	29500 nM (inactive)	33400 nM (inactive)
O=[N+]([O-])c1ccc(C2NC(=S)NC3c4cc([N+](=O)[O-])ccc4CCCC23)cc1 (stereo not given)	55700 nM (inactive)	36900 nM (inactive)	> 100000 nM (inactive)	15400 nM (inactive)	> 100000 nM (inactive)	78300 nM (inactive)	39100 nM (inactive)	> 100000 nM (inactive)	46600 nM (inactive)	56400 nM (inactive)	39400 nM (inactive)	> 100000 nM (inactive)	> 100000 nM (inactive)	> 100000 nM (inactive)	58900 nM (inactive)	> 100000 nM (inactive)	> 100000 nM (inactive)	> 100000 nM (inactive)	> 100000 nM (inactive)	18200 nM (inactive)
COc1ccc2cc(CNCCCN3CCN(CCCNCc4ccc5cc(OC)ccc5c4)CC3)ccc2c1	966 nM (active)	1720 nM (inactive)	240 nM (active)	1430 nM (inactive)	789 nM (active)	1830 nM (inactive)	1810 nM (inactive)	198 nM (active)	1680 nM (inactive)	1960 nM (inactive)	450 nM (active)	327 nM (active)	1400 nM (inactive)	830 nM (active)	276 nM (active)	1420 nM (inactive)	1710 nM (inactive)	1930 nM (inactive)	859 nM (active)	1460 nM (inactive)
